The results in this text go back to US10172358B2, “Thiopicolinamide compounds with fungicidal activity” (Dow AgroSciences LLC, priority 2016, dated 2019).

Where two headings read alike, the source gives them in different places.

For one assay, the system named is Puccinia triticina. Put plainly: Fungicidal activity: wheat brown rust (PUCCRT), disease control on wheat seedlings. The assay is classed as in vivo, Puccinia triticina on wheat plants (variety Yuma). As to conditions: for pest or weed control at 100 ppm: high volume application; for pest or weed control at 121.5 g/ha: low volume application, 121.5 g/H. The method, then: Technical grades of materials were dissolved in acetone, which were then mixed with nine volumes of water (H2O) containing 110 ppm Triton X-100. The fungicide solutions were applied onto wheat seedlings using an automated booth sprayer to run-off. All sprayed plants were allowed to air dry prior to further handling. All fungicides were evaluated using the aforementioned method for their activity vs. all target diseases, unless stated otherwise. Wheat leaf blotch and brown rust activity were also evaluated using track spray applications, in which case the fungicides were formulated as EC formulations, containing 0.1% Trycol 5941 in the spray solutions. Evaluation of Fungicidal Activity: Wheat Brown Rust (Puccinia triticina; Synonym: Puccinia recondita f. Sp. Tritici; Bayer Code PUCCRT) Wheat plants (variety Yuma) were grown from seed in a greenhouse in 50% mineral soil/50% soil-less Metro mix until the first leaf was fully emerged, with 7-10 seedlings per pot. These plants were inoculated with an aqueous spore suspension of Puccinia triticina either prior to or after fungicide treatments. After inoculation the plants were kept in a dark dew room at 22° C. with 100% relative humidity overnight to permit spores to germinate and infect the leaf. The plants were then transferred to a greenhouse set at 24° C. for disease to develop. Fungicide formulation, application and disease assessment followed the procedures as described in the Example A. The results of the evalution are shown below in Table 4.

In another assay the test system is Zymoseptoria tritici. The assay is described as follows: Fungicidal activity: leaf blotch of wheat (SEPTTR), disease control on wheat seedlings. The assay is classed as in vivo, Zymoseptoria tritici on wheat plants (variety Yuma). The conditions noted are these: for pest or weed control at 100 ppm: high volume application; for pest or weed control at 121.5 g/ha: low volume application, 121.5 g/H. How it is done: Evaluation of Fungicidal Activity: Leaf Blotch of Wheat (Zymoseptoria Tritici; Bayer Code […]) Technical grades of materials were dissolved in acetone, which were then mixed with nine volumes of water (H2O) containing 110 ppm Triton X-100. The fungicide solutions were applied onto wheat seedlings using an automated booth sprayer to run-off. All sprayed plants were allowed to air dry prior to further handling. All fungicides were evaluated using the aforementioned method for their activity vs. all target diseases, unless stated otherwise. Wheat leaf blotch and brown rust activity were also evaluated using track spray applications, in which case the fungicides were formulated as EC formulations, containing 0.1% Trycol 5941 in the spray solutions. Wheat plants (variety Yuma) were grown from seed in a greenhouse in 50% mineral soil/50% soil-less Metro mix until the first leaf was fully emerged, with 7-10 seedlings per pot. These plants were inoculated with an aqueous spore suspension of Zymoseptoria tritici either prior to or after fungicide treatments. After inoculation the plants were kept in 100% relative humidity (one day in a dark dew chamber followed by two to three days in a lighted dew chamber at 20° C.) to permit spores to germinate and infect the leaf. The plants were then transferred to a greenhouse set at 20° C. for disease to develop. When disease symptoms were fully expressed on the 1st leaves of untreated plants, infection levels were assessed on a scale of 0 to 100 percent disease severity. Percent disease control was calculated using the ratio of disease severity on treated plants relative to untreated plants.

The mark [1] stands for this setting: 24 h, 1 day protectant, read-out: PUCCRT 1DP disease control, HV activity at 100 ppm.
Setting [2] is: 72 h, 3 day curative, read-out: PUCCRT 3DC disease control, HV activity at 100 ppm.
[3] abbreviates: 24 h, 1 day protectant, read-out: SEPTTR 1DP disease control, HV activity at 100 ppm.
Setting [4] is: 72 h, 3 day curative, read-out: SEPTTR 3DC disease control, HV activity at 100 ppm.
Where [5] appears, read: 24 h, 1 day protectant, read-out: PUCCRT 1DP disease control, LV activity at 121.5 g/H.
The mark [6] stands for this setting: 72 h, 3 day curative, read-out: PUCCRT 3DC disease control, LV activity at 121.5 g/H.
The mark [7] stands for this setting: 24 h, 1 day protectant, read-out: SEPTTR 1DP disease control, LV activity at 121.5 g/H.

On to `COc1ccnc(C(=S)N[C@@H](C)C(=O)O[C@H](C(C)C)[C@H](C)Oc2ccc(C)cc2)c1O` [Compound 1], for which the pest or weed control at 100 ppm in the assay with Puccinia triticina (setting [1]) was > 80%; in the assay on Puccinia triticina (setting [2]), > 80%; with Zymoseptoria tritici (setting [3]) it was ≤ 80%; with Zymoseptoria tritici (setting [4]) it was ≤ 80%.

Consider `COc1ccnc(C(=S)N[C@@H](C)C(=O)O[C@@H](C)C(c2ccc(Cl)cc2)c2ccc(Cl)cc2)c1O` [Compound 2], for which the pest or weed control at 100 ppm in the assay on Puccinia triticina (setting [1]), in the assay on Zymoseptoria tritici (setting [3]) and in the assay on Zymoseptoria tritici (setting [4]) was > 80% in each case.

For `COc1ccnc(C(=S)N[C@@H](C)C(=O)O[C@@H](C)C(c2ccc(C)cc2C)c2ccc(C)cc2C)c1O` [Compound 3], the pest or weed control at 100 ppm in the assay on Puccinia triticina (setting [1]), with Zymoseptoria tritici (setting [3]) and in the assay with Zymoseptoria tritici (setting [4]) was > 80% each time.

As to `COc1ccnc(C(=S)N[C@@H](C)C(=O)O[C@@H](C)[C@@H](c2ccccc2)c2ccc(F)cc2)c1O` [Compound 4], the pest or weed control at 100 ppm with Puccinia triticina (setting [1]), with Zymoseptoria tritici (setting [3]) and with Zymoseptoria tritici (setting [4]) was > 80% in each case.

Regarding `COc1ccc(C(c2ccc(OC)cc2F)[C@H](C)OC(=O)[C@H](C)NC(=S)c2nccc(OC)c2O)c(F)c1` [Compound 5], the pest or weed control at 100 ppm in the assay on Puccinia triticina (setting [1]), with Zymoseptoria tritici (setting [3]) and in the assay with Zymoseptoria tritici (setting [4]) was > 80% each time.

For the molecule `COc1ccnc(C(=S)N[C@@H](C)C(=O)O[C@@H](C)[C@@H](c2ccc(C)cc2)c2ccc(F)cc2C)c1O` [Compound 6], the pest or weed control at 100 ppm in the assay on Puccinia triticina (setting [1]) was > 80%; in the assay with Puccinia triticina (setting [2]) it was ≤ 80%; with Zymoseptoria tritici (setting [3]), > 80%; with Zymoseptoria tritici (setting [4]) it was > 80%.

Take `COc1ccnc(C(=S)N[C@@H](C)C(=O)O[C@H](C)C(c2ccc(F)cc2)c2ccc(F)cc2)c1O` [Compound 7]: the pest or weed control at 100 ppm in the assay on Puccinia triticina (setting [1]) and in the assay on Zymoseptoria tritici (setting [3]) was ≤ 80% each time.

Turning to `CCCCC[C@@H](OC(=O)[C@H](C)NC(=S)c1nccc(OC)c1O)[C@H](C)Oc1ccccc1` [Compound 8], the figures for the pest or weed control at 100 ppm in the assay on Puccinia triticina (setting [1]), in the assay with Zymoseptoria tritici (setting [3]) and with Zymoseptoria tritici (setting [4]) were > 80%, ≤ 80% and ≤ 80%, respectively.

In the case of `COc1ccnc(C(=S)N[C@@H](C)C(=O)O[C@@H](C)[C@H](Oc2ccc(Cl)cc2Cl)c2ccccc2)c1O` [Compound 9], the pest or weed control at 100 ppm with Puccinia triticina (setting [1]), with Zymoseptoria tritici (setting [3]) and in the assay on Zymoseptoria tritici (setting [4]) was > 80% in each case.

As for `CCCCC[C@H](OC(=O)[C@H](C)NC(=S)c1nccc(OC)c1O)[C@@H](C)Oc1ccccc1` [Compound 10], the pest or weed control at 100 ppm in the assay with Puccinia triticina (setting [1]) was ≤ 80%.

As for `COc1ccc(O[C@@H](C)[C@H](OC(=O)[C@H](C)NC(=S)c2nccc(OC)c2O)C(C)C)cc1` [Compound 11], the pest or weed control at 100 ppm with Puccinia triticina (setting [1]) was > 80%; with Puccinia triticina (setting [2]), > 80%; in the assay on Zymoseptoria tritici (setting [3]), > 80%; in the assay on Zymoseptoria tritici (setting [4]) it was ≤ 80%.

`COc1cc(F)ccc1[C@H](c1ccccc1)[C@H](C)OC(=O)[C@H](C)NC(=S)c1nccc(OC)c1O` [Compound 12]: the pest or weed control at 100 ppm in the assay on Puccinia triticina (setting [1]) was > 80%; in the assay with Puccinia triticina (setting [2]), ≤ 80%; in the assay on Zymoseptoria tritici (setting [3]) it was > 80%; in the assay on Zymoseptoria tritici (setting [4]), ≤ 80%.

Turning to `COc1ccccc1C(c1ccccc1OC)[C@H](C)OC(=O)[C@H](C)NC(=S)c1nccc(OC)c1O` [Compound 13], the pest or weed control at 100 ppm was > 80% in the assay on Puccinia triticina (setting [1]), ≤ 80% in the assay with Puccinia triticina (setting [2]), > 80% in the assay on Zymoseptoria tritici (setting [3]) and > 80% in the assay with Zymoseptoria tritici (setting [4]).

On to `COc1cc(Cl)ccc1C(c1ccc(Cl)cc1OC)[C@H](C)OC(=O)[C@H](C)NC(=S)c1nccc(OC)c1O` [Compound 14], for which the pest or weed control at 100 ppm was > 80% in the assay with Puccinia triticina (setting [1]), ≤ 80% in the assay on Puccinia triticina (setting [2]), > 80% in the assay with Zymoseptoria tritici (setting [3]) and > 80% with Zymoseptoria tritici (setting [4]).

As to `COc1ccnc(C(=S)N[C@H](C)C(=O)O[C@@H](C)C(c2ccc(F)cc2)c2ccc(F)cc2)c1O` [Compound 15], the pest or weed control at 100 ppm in the assay on Zymoseptoria tritici (setting [3]) is > 80%.

As for `C=CC[C@@H](Oc1ccccc1)[C@H](C)OC(=O)[C@H](C)NC(=S)c1nccc(OC)c1O` [Compound 16], the pest or weed control at 100 ppm was > 80% in the assay on Puccinia triticina (setting [1]), > 80% with Puccinia triticina (setting [2]), > 80% in the assay with Zymoseptoria tritici (setting [3]) and ≤ 80% in the assay on Zymoseptoria tritici (setting [4]).

Regarding `COc1ccnc(C(=S)N[C@@H](C)C(=O)O[C@@H](C)[C@H](Oc2ccc(Cl)cc2)C(C)C)c1O` [Compound 17], the pest or weed control at 100 ppm was > 80% in the assay with Puccinia triticina (setting [1]) and ≤ 80% in the assay with Zymoseptoria tritici (setting [3]).

In the case of `COc1cc(F)ccc1[C@H](c1ccc(C)cc1)[C@H](C)OC(=O)[C@H](C)NC(=S)c1nccc(OC)c1O` [Compound 18], the pest or weed control at 100 ppm in the assay on Puccinia triticina (setting [1]), with Puccinia triticina (setting [2]), in the assay with Zymoseptoria tritici (setting [3]) and with Zymoseptoria tritici (setting [4]) was > 80% each time.

Regarding `COc1ccnc(C(=S)N[C@@H](C)C(=O)O[C@H](C(C)C)[C@H](C)Oc2ccccc2)c1O` [Compound 19], the pest or weed control at 100 ppm in the assay with Puccinia triticina (setting [1]), in the assay with Puccinia triticina (setting [2]) and in the assay on Zymoseptoria tritici (setting [3]) was > 80% in each case.

For `COc1ccnc(C(=S)N[C@@H](C)C(=O)O[C@@H](C)C(c2ccc(C)cc2)c2ccc(C)cc2)c1O` [Compound 20], the pest or weed control at 100 ppm in the assay with Puccinia triticina (setting [1]) is > 80%; in the assay with Puccinia triticina (setting [2]), ≤ 80%; in the assay on Zymoseptoria tritici (setting [3]), > 80%; with Zymoseptoria tritici (setting [4]) it was > 80%.

Take `COc1ccnc(C(=S)N[C@@H](C)C(=O)O[C@H](CC(C)C)[C@H](C)Oc2ccccc2)c1O` [Compound 21]: the pest or weed control at 100 ppm in the assay with Zymoseptoria tritici (setting [3]) and in the assay with Zymoseptoria tritici (setting [4]) was ≤ 80% throughout.

As for `COc1ccnc(C(=S)N[C@@H](C)C(=O)O[C@@H](C)[C@H](Oc2ccccc2Cl)c2ccccc2)c1O` [Compound 22, (1R,2S)-1-(2-chlorophenoxy)-1-phenylpropan-2-yl (3-hydroxy-4-methoxypyridine-2-carbonothioyl)-L-alaninate], the pest or weed control at 100 ppm with Puccinia triticina (setting [1]) is > 80%; in the assay with Puccinia triticina (setting [2]), ≤ 80%; in the assay on Zymoseptoria tritici (setting [3]) it was > 80%; in the assay with Zymoseptoria tritici (setting [4]) it was ≤ 80%.

Take `CCC[C@H](OC(=O)[C@H](C)NC(=S)c1nccc(OC)c1O)[C@@H](C)Oc1ccccc1` [Compound 34]: the pest or weed control at 100 ppm in the assay on Zymoseptoria tritici (setting [3]) was ≤ 80%.

As to `COc1ccnc(C(=S)N[C@@H](C)C(=O)O[C@@H](C)C(c2ccc(F)cc2)c2ccc(F)cc2)c1O` [Compound 39], the pest or weed control at 100 ppm with Puccinia triticina (setting [1]) was ≤ 80%; in the assay on Puccinia triticina (setting [2]) it was ≤ 80%; in the assay with Zymoseptoria tritici (setting [3]), > 80%; in the assay with Zymoseptoria tritici (setting [4]), > 80%.

With `CCCCC[C@@H](OC(=O)[C@H](C)NC(=S)c1nccc(OC)c1CC(C)=O)[C@H](C)Oc1ccccc1` [Compound 41], the pest or weed control at 121.5 g/ha in the assay on Puccinia triticina (setting [5]) was > 80%; in the assay on Puccinia triticina (setting [6]), > 80%; in the assay with Zymoseptoria tritici (setting [7]), > 80%; with Zymoseptoria tritici (72 h, 3 day curative, read-out: SEPTTR 3DC disease control, LV activity at 121.5 g/H), > 80%.

In the case of `CCCCC[C@H](OC(=O)[C@H](C)NC(=S)c1nccc(OC)c1OC(C)=O)[C@@H](C)Oc1ccccc1` [Compound 42], the pest or weed control at 121.5 g/ha with Puccinia triticina (setting [5]), in the assay on Puccinia triticina (setting [6]) and in the assay with Zymoseptoria tritici (setting [7]) was ≤ 80% each time.

Consider `COc1ccnc(C(=S)N[C@@H](C)C(=O)O[C@H](C)C(c2ccc(F)cc2)c2ccc(F)cc2)c1OC(C)=O` [Compound 55], for which, in the assay with Zymoseptoria tritici (setting [7]), the pest or weed control at 121.5 g/ha was ≤ 80%.
